# Measurements published in patent publication US10221177B2 (HYDRA BIOSCIENCES, INC., priority 2014, dated 2019).
# pIC50: −log10 of the molar value. Where “and” joins values, the source holds several entries; their conditions need not be identical. Equal entries are not always repeated.
# How the values were obtained:
# [1] = test system: formalin-induced pain behaviors in the rat; assay: Formalin-induced pain test (formalin model), duration of pain behaviors; format: in vivo
# Description: Exemplary compounds of the invention were tested in the formalin-induced pain test reported by Dubuisson et al., Pain 1977 December; 4(2):161-74 (incorporated herein by reference in its entirety). Briefly, dilute formalin (50 μL of 3% formalin) was injected into the plantar surface of the hind paw of a rat. […] The individual responsible for counting the pain behaviors in a particular study was blinded to the treatment groups.
# The initial phase (Phase I: 0-5 min) is thought to have a significant component that is dependent upon direct activation of afferent fibers by formalin and functional TRPA1 (McNamara et al., 2007).
# Investigators studied oral administration of compounds of the invention at the doses presented in Table 3 on pain behaviors in the formalin model in the rat. Compounds were formulated as solutions in water with various solvents and excipients including dimethyl sulfoxide (DMSO), polyethylene glycol (15)-hydroxystearate (Solutol®, Sigma-Aldrich), caprylocaproyl macrogol-8 glyceride (Labrasol®, Sigma-Aldrich), polysorbate-80 (Tween®-80, Sigma-Aldrich), and polyoxyl 35 castor oil (Cremophor® EL, BASF Corp.); or suspensions in methylcellulose as indicated in Table 3. Animals were dosed orally with the vehicle, or compounds of the invention one hour prior to intraplantar formalin. […] A decrease over Vehicle indicates a positive result. P values, when indicated, indicate significance compared Vehicle.
# [2] = test system: CFA-induced cold hypersensitivity of the hind paw; assay: CFA-induced pain test, cold hypersensitivity (cold plate paw withdrawal latency); format: in vivo; settings: cold plate 1° C., solution in 4% DMSO, 5% Tween-80; for Average PWL Post-Treatment / PWL Change: 1-2 hour pre-treatment; for Average PWL Post-CFA: baseline before dosing
# Description: Embodiments of the invention may be efficacious in the treatment of inflammatory pain. Compounds of the invention were tested by the CFA-induced pain test method. Compounds were formulated as solutions in water with various solvents and excipients including dimethyl sulfoxide (DMSO), polyethylene glycol (15)-hydroxystearate (Solutol®, Sigma-Aldrich), caprylocaproyl macrogol-8 glyceride (Labrasol®, Sigma-Aldrich), polysorbate-80 (Tween®-80, Sigma-Aldrich), and polyoxyl 35 castor oil (Cremophor® EL, BASF Corp.); or suspensions in methylcellulose as indicated in Table 3 for oral delivery. Briefly, the hind paw was sensitized to cold temperature (allodynic) by administering 0.1 mL of Complete Freund's Adjuvant (CFA) to the right hind paw. Three days later, the time taken for the animal to lift its CFA-injected paw was recorded compared to its un-injected normal left hind paw. […] To avoid tissue damage the maximum cut-off time was 5 minutes. Animals that were allodynic (average PWL to the first three pain behaviors <150 seconds for the CFA-injected hind paw: ˜≥50% difference between the normal and CFA-injected paw) were included in the study and subsequently randomized across treatment groups. The following day, the animals were dosed orally under blinded conditions. Following the 1-2 hour pre-treatment time, the post-dose PWL readings were again taken. The efficacy of the drug treatment was assessed by comparing the PWL in the drug treatment animals to those animals that receive the vehicle. P values, when indicated, indicate significance compared Vehicle.
# human TRPA1 = human TRPA1 (Homo sapiens (Human), UniProt O75762); assay: In vitro inhibition of human TRPA1, whole cell patch configuration; format: cell-based; settings: current activation 10 μM AITC, tested concentrations 320 pM to 3.2 μM, read-out: hTRPA1 IC50
# In short: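 Compound antagonism measured from voltage ramps (±100 or ±80 mV, 400 ms, every 4 s from −40 mV), analysed at −80 and 80 mV, or at constant −60 mV. HEPES-buffered NaCl bath, pH 7.4, EGTA or 2 mM Ca2+; temperature set by perfusion, within ±2° C; no junction-potential correction.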
# [3] = 30 mg/kg PO one hour prior to formalin, solution in 8% DMSO and 92% Labrasol
# [4] = 1 mg/kg PO, 25% Cremophor EL, and 66% water
# [5] = 3 mg/kg PO, 25% Cremophor EL, and 66% water
# [6] = 10 mg/kg PO, 25% Cremophor EL, and 66% water
# [7] = 1 mg/kg PO one hour prior to formalin, solution in 4% DMSO, 5% Tween-80, 20% Cremophor EL, 71% water
# [8] = 3 mg/kg PO one hour prior to formalin, solution in 4% DMSO, 5% Tween-80, 20% Cremophor EL, 71% water
# [9] = 10 mg/kg PO one hour prior to formalin, solution in 4% DMSO, 5% Tween-80, 20% Cremophor EL, 71% water
# [10] = 1 mg/kg PO, 20% Cremophor EL, and 71% water
# [11] = 3 mg/kg PO, 20% Cremophor EL, and 71% water
# [12] = 10 mg/kg PO, 20% Cremophor EL, and 71% water
# [13] = group 1 mg/kg PO, 20% Cremophor EL, and 71% water
# [14] = group 3 mg/kg PO, 20% Cremophor EL, and 71% water
# [15] = 0.3 mg/kg PO, 20% Cremophor EL, and 71% water
# [16] = 30 mg/kg PO one hour prior to formalin, solution in 4% DMSO, 5% Tween-80, 20% Cremophor EL, 71% water
# Chain of human TRPA1 (O75762 whole entry, the tested form may be a part): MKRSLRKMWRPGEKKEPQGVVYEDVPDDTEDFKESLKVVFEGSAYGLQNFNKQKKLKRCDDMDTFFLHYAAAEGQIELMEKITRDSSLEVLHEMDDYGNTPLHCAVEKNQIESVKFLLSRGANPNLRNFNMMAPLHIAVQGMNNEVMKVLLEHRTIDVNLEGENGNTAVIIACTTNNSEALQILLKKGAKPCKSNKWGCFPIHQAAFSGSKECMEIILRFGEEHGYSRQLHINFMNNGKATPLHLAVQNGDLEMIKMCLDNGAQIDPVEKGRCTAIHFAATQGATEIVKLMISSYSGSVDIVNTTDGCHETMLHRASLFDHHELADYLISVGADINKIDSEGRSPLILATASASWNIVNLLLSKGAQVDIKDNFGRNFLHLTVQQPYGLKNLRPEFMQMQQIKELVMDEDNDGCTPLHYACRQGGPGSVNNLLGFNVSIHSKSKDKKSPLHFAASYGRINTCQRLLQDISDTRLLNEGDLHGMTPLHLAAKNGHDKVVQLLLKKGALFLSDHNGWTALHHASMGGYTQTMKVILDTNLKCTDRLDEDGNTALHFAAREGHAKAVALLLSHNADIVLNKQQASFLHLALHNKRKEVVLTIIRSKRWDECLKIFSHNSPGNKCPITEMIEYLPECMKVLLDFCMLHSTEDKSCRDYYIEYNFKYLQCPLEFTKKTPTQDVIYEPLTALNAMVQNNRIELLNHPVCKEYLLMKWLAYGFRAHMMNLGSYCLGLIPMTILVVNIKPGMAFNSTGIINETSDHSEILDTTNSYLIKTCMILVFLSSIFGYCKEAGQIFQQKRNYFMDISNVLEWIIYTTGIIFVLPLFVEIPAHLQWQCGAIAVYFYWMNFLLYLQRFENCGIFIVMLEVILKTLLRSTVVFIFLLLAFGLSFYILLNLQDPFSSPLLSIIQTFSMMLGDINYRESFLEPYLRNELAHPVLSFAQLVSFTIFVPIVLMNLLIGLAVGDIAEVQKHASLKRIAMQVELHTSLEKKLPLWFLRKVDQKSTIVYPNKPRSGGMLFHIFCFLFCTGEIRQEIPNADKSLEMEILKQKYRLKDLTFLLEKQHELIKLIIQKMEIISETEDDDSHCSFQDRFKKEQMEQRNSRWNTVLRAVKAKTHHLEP
smiles,measurement,setting,value
CCC(=O)Cn1c(=O)c2c(ncn2[C@@H](C)C(=O)Nc2csc(-c3cnc(N4CC5CC5C4)nc3)n2)n(C)c1=O (stereo partly shown) [Compound 14],Duration (0-2 Minutes) Average,[1]; [3],34.3 s and 39.6 s
same,Duration (0-5 Minutes) Average,[1]; [3],123.4 s and 160.6 s
same,Average PWL Post-Treatment,[2]; [4],194.8
same,PWL Change,[2]; [4],104.2 s
same,Average PWL Post-Treatment,[2]; [5],180.0
same,PWL Change,[2]; [5],87.6 s
same,Average PWL Post-Treatment,[2]; [6],237.4
same,PWL Change,[2]; [6],146.3 s
same,Average PWL Post-CFA,"[2]; group 1 mg/kg PO, 25% Cremophor EL, and 66% water",90.3
same,Average PWL Post-CFA,"[2]; group 3 mg/kg PO, 25% Cremophor EL, and 66% water",92.3
same,Average PWL Post-CFA,"[2]; group 10 mg/kg PO, 25% Cremophor EL, and 66% water",90.9
"CCC(=O)Cn1c(=O)c2c(ncn2[C@@H](C)C(=O)Nc2csc(-c3cnc(N4CCC[C@H]4C(F)(F)F)nc3)n2)n(C)c1=O [Compound 18, (S)-2-(3-methyl-2,6-dioxo-1-(2-oxobutyl)-2,3-dihydro-1H-purin-7(6H)-yl)-N-(2-(2-((S)-2-(trifluoromethyl)pyrrolidin-1-yl)pyrimidin-5-yl)thiazol-4-yl)propanamide]",Duration (0-2 Minutes) Average,[1]; [7],78.0 s
same,Duration (0-5 Minutes) Average,[1]; [7],183.3 s
same,Duration (0-2 Minutes) Average,[1]; [8],58.0 s
same,Duration (0-5 Minutes) Average,[1]; [8],157.1 s
same,Duration (0-2 Minutes) Average,[1]; [9],35.3 s
same,Duration (0-5 Minutes) Average,[1]; [9],181.6 s
same,Average PWL Post-Treatment,[2]; [10],246.8
same,PWL Change,[2]; [10],149.7 s
same,Average PWL Post-Treatment,[2]; [11],233.5
same,PWL Change,[2]; [11],136.4 s
same,Average PWL Post-Treatment,[2]; [12],256.1
same,PWL Change,[2]; [12],159.1 s
same,Average PWL Post-CFA,[2]; [13],97.1
same,Average PWL Post-CFA,[2]; [14],97.0
same,Average PWL Post-CFA,"[2]; group 10 mg/kg PO, 20% Cremophor EL, and 71% water",97.0
"COCC(=O)Cn1c(=O)c2c(ncn2[C@@H](C)C(=O)Nc2csc(-c3cnc(N4CC5CC5C4)nc3)n2)n(C)c1=O (stereo partly drawn) [Compound 105, (2S)—N-(2-(2-(3-azabicyclo[3.1.0]hexan-3-yl)pyrimidin-5-yl)thiazol-4-yl)-2-(1-(3-methoxy-2-oxopropyl)-3-methyl-2,6-dioxo-2,3-dihydro-1H-purin-7(6H)-yl)propanamide]",Duration (0-2 Minutes) Average,[1]; [7],97.9 s
same,Duration (0-5 Minutes) Average,[1]; [7],162.6 s
same,Duration (0-2 Minutes) Average,[1]; [8],86.0 s
same,Duration (0-5 Minutes) Average,[1]; [8],154.0 s
same,Duration (0-2 Minutes) Average,[1]; [9],70.1 s
same,Duration (0-5 Minutes) Average,[1]; [9],137.3 s
same,Average PWL Post-Treatment,[2]; [15],137.3
same,PWL Change,[2]; [15],34.9 s
same,Average PWL Post-Treatment,[2]; [10],215.2
same,PWL Change,[2]; [10],112.8 s
same,Average PWL Post-Treatment,[2]; [11],226.3
same,PWL Change,[2]; [11],123.6 s
same,Average PWL Post-CFA,"[2]; group 0.3 mg/kg PO, 20% Cremophor EL, and 71% water",102.4
same,Average PWL Post-CFA,[2]; [13],102.3
same,Average PWL Post-CFA,[2]; [14],102.7
"C[C@@H](C(=O)Nc1cccc(-c2cnc(N3CC4CC4C3)nc2)n1)n1cnc2c1c(=O)n(CC#N)c(=O)n2C (stereo partly drawn) [Compound 149, (2S)—N-(6-(2-(3-azabicyclo[3.1.0]hexan-3-yl)pyrimidin-5-yl)pyridin-2-yl)-2-(1-(cyanomethyl)-3-methyl-2,6-dioxo-2,3-dihydro-1H-purin-7(6H)-yl)propanamide]",Duration (0-2 Minutes) Average,[1]; [16],41.9 s
same,Duration (0-5 Minutes) Average,[1]; [16],153.0 s
same,pIC50,human TRPA1,8.70
"C[C@@H](C(=O)Nc1ccnc(-c2cnc(N3CC4CC4C3)nc2)n1)n1cnc2c1c(=O)n(CC#N)c(=O)n2C (stereo partly drawn) [Compound 155, (2S)—N-(2′-(3-azabicyclo[3.1.0]hexan-3-yl)-2,5′-bipyrimidin-4-yl)-2-(1-(cyanomethyl)-3-methyl-2,6-dioxo-2,3-dihydro-1H-purin-7(6H)-yl)propanamide]",Duration (0-2 Minutes) Average,[1]; [9],59.4 s
same,Duration (0-5 Minutes) Average,[1]; [9],182.5 s
same,pIC50,human TRPA1,8.30
"Cc1nc(Cn2c(=O)c3c(ncn3[C@@H](C)C(=O)Nc3ccnc(-c4cnc(C)c(C(F)(F)F)c4)n3)n(C)c2=O)no1 [Compound 172, (S)-2-(3-methyl-1-((5-methyl-1,2,4-oxadiazol-3-yl)methyl)-2,6-dioxo-2,3-dihydro-1H-purin-7(6H)-yl)-N-(2-(6-methyl-5-(trifluoromethyl)pyridin-3-yl)pyrimidin-4-yl)propanamide]",Duration (0-2 Minutes) Average,[1]; [7],88.6 s
same,Duration (0-5 Minutes) Average,[1]; [7],151.0 s
same,Duration (0-2 Minutes) Average,[1]; [8],91.1 s
same,Duration (0-5 Minutes) Average,[1]; [8],149.0 s
same,Duration (0-2 Minutes) Average,[1]; [9],83.1 s
same,Duration (0-5 Minutes) Average,[1]; [9],151.6 s
same,pIC50,human TRPA1,8.70
"Cc1nc(Cn2c(=O)c3c(ncn3CC(=O)Nc3csc(-c4cnc(C(F)(F)F)c(C)c4)n3)n(C)c2=O)no1 [Compound 253, 2-(3-methyl-1-((5-methyl-1,2,4-oxadiazol-3-yl)methyl)-2,6-dioxo-2,3-dihydro-1H-purin-7(6H)-yl)-N-(2-(5-methyl-6-(trifluoromethyl)pyridin-3-yl)thiazol-4-yl)acetamide]",Duration (0-2 Minutes) Average,[1]; [7],79.3 s
same,Duration (0-5 Minutes) Average,[1]; [7],126.4 s
same,Duration (0-2 Minutes) Average,[1]; [8],78.8 s
same,Duration (0-5 Minutes) Average,[1]; [8],119.6 s
same,Duration (0-2 Minutes) Average,[1]; [9],76.4 s
same,Duration (0-5 Minutes) Average,[1]; [9],116.0 s
same,pIC50,human TRPA1,7.70
